Measurements reported in US9877999B2, “Methods for treating metastatic stage prostate cancer” (Ferring International SA, priority 2008, dated 2018).
Several values for one entry are separate records, joined by “and”; a condition that tells them apart may be missing. Identical values can stand only once.

Experiments:
Type in all cases: in vivo, human
[1] = test system: serum alkaline phosphatase (S-ALP); assay: S-ALP analysis in prostate cancer patients (clinical study CS21); conditions: Leuprolide 7.5 mg
Procedure: Patients with histologically confirmed adenocarcinoma of the prostate (all stages), for whom androgen deprivation therapy was indicated were recruited. Baseline characteristics were well balanced between groups. Approximately half of patients had locally advanced (29.2%) or metastatic (20.5%) disease at baseline. […] Patients receiving leuprolide could also receive bicalutamide for clinical flare protection. The S-ALP levels were measured in each patient at various time points, by taking a blood sample and analyzing for S-ALP. S-ALP levels were measured using a standardized colorimetric assay based on the p-nitrophenyl phosphate AMP buffer method. The normal range for S-ALP is 44-147 IU/L. The S-ALP values in non-metastatic patients serve as controls. An ANOVA analysis with treatment and day as factors and baseline value as covariate was used to determine between treatment differences at Day 364. A repeated measures analysis (incorporating all time points from Day 112) with treatment and day as factors and baseline value as covariate was used to assess between treatment differences from Day 112 to Day 364.

[2] = test system: prostate-specific antigen (PSA); assay: PSA failure in prostate cancer patients (clinical study CS21); conditions: for proportion of PSA failures: leuprolide 7.5 mg
Procedure: For this analysis, PSA failure (a secondary endpoint) was defined as two consecutive increases in PSA of 50% and 5 ng/mL compared with nadir. The time to PSA failure was defined as the number of days from first dosing to where an increase in serum PSA of 50% from nadir and 5 ng/mL, measured on two consecutive occasions at least two weeks apart, was noted. The second occasion was the time point of meeting the criterion. PSA failure rates were also analyzed by disease stage and baseline PSA level.
(§1) The secondary efficacy endpoints were: the proportion of patients with testosterone surge during the first 2 weeks of treatment; the proportion of patients with testosterone level ≦0.5 ng/mL at day 3; the percentage change in PSA from baseline to day 28; the probability of testosterone ≦0.5 ng/mL from day 56 through day 364; the levels of serum testosterone, LH, FSH and PSA over time through the study; the time to PSA failure, defined as two consecutive increases of 50%, and at least 5 ng/mL as compared to nadir; degarelix concentration over the first month and trough levels at day 308 and 336; the frequency and size of testosterone increases at day 255 and/or 259 compared to the testosterone level at day 252; the quality of life on days 0, 28, 84, 168 and end of study visit; the frequency and intensity of hot flushes experienced (scored daily from study start until end of study visit). In addition, two further secondary endpoints were added: the probability of sufficient testosterone response from day 28 through day 364 (a patient was considered to have insufficient testosterone response if they had one testosterone value >1.0 ng/mL or two consecutive testosterone values >0.5 ng/mL at day 28 onwards); and the percentage change in PSA from baseline to day 14.
The secondary endpoints, probability of testosterone ≦0.5 ng/mL from day 56 through day 364, time to PSA failure, and probability of sufficient testosterone response from day 28 through day 364 were analyzed by the Kaplan-Meier method.

testosterone = conditions: leuprolide 7.5 mg group
Procedure: The study also evaluated the pharmacokinetics of the degarelix dosing regimens investigated. Finally, the study examined the effects of using the degarelix treatment on patients suffering from different stages of cancer. […] The primary efficacy endpoint was the probability of testosterone levels remaining ≦0.5 ng/mL from day 28 through day 364. […] The primary efficacy endpoint was analyzed for both the ITT and PP analysis sets, with the ITT analysis set considered primary. The primary efficacy endpoint was analyzed using the Kaplan Meier method. For each of the three treatment groups, testosterone response rates with 95% confidence interval (CI) were calculated by log-log transformation of survivor function. […] All secondary efficacy endpoints were analyzed for both the ITT and PP analysis sets, unless otherwise stated. […] The percentage change in PSA from baseline to day 28 endpoint was analyzed by a Wilcoxon test.

[3] = test system: prostate-specific antigen (PSA); assay: Serum PSA level change in prostate cancer patients (clinical study CS21); conditions: leuprolide 7.5 mg patients who did not receive anti-androgen therapy
Procedure: All secondary efficacy endpoints were analyzed for both the ITT and PP analysis sets, unless otherwise stated. The proportion of patients with testosterone surge during the first 2 weeks of treatment was analyzed using Fisher's exact test. […] The percentage change in PSA from baseline to day 28 endpoint was analyzed by a Wilcoxon test.

luteinizing hormone (LH) = assay: Serum LH levels over time (clinical study CS21); conditions: leuprolide 7.5 mg group
Procedure: (§2) The study also investigated whether degarelix is safe and effective with respect to achieving and maintaining testosterone suppression to castrate levels, evaluated as the proportion of patients with testosterone suppression ≦0.5 ng/mL during 12 months of treatment. […] The study also evaluated the pharmacokinetics of the degarelix dosing regimens investigated. Finally, the study examined the effects of using the degarelix treatment on patients suffering from different stages of cancer.
(§3) Patients in two treatment groups received a degarelix starting dose of 240 mg at a concentration of 40 mg/mL (240@40) on day 0 administered as two equivalent subcutaneous (s.c.) injections of 120 mg each. Thereafter, patients received 12 additional single s.c. degarelix doses of either 80 mg at a concentration of 20 mg/mL (80@20: degarelix 240/80 mg group) or 160 mg at a concentration of 40 mg/mL (160@40: degarelix 240/160 mg group) administered s.c. every 28 days.
as §1

[4] = test system: follicle stimulating hormone (FSH); assay: Serum FSH levels over time (clinical study CS21); conditions: leuprolide 7.5 mg group
Procedure: as §2, §3, §1

## CCNC(=O)[C@@H]1CCCN1C(=O)[C@H](CCCNC(=N)N)NC(=O)[C@H](CC(C)C)NC(=O)[C@@H](CC(C)C)NC(=O)[C@H](Cc1ccc(O)cc1)NC(=O)[C@H](CO)NC(=O)[C@H](Cc1c[nH]c2ccccc12)NC(=O)[C@H](Cc1c[nH]cn1)NC(=O)[C@@H]1CCC(=O)N1 [leuprolide, reference compound]
[1]; Localized, Day 112
  S-ALP mean change from baseline: +5 IU/L
[1]; Localized, Day 224
  S-ALP mean change from baseline: +7 IU/L
[1]; Localized, Day 364
  S-ALP mean change from baseline: +9 IU/L
[1]; Locally advanced, Day 112
  S-ALP mean change from baseline: −1 IU/L
[1]; Locally advanced, Day 224
  S-ALP mean change from baseline: −1 IU/L
[1]; Locally advanced, Day 364
  S-ALP mean change from baseline: +6 IU/L
[1]; Metastatic (Hb < 130 g/L), Day 112
  S-ALP mean change from baseline: −30 IU/L
[1]; Metastatic (Hb < 130 g/L), Day 224
  S-ALP mean change from baseline: −70 IU/L
[1]; Metastatic (Hb < 130 g/L), Day 364
  S-ALP mean change from baseline: −10 IU/L
[1]; Metastatic, Day 112
  S-ALP mean change from baseline: −20 IU/L
[1]; Metastatic, Day 224
  S-ALP mean change from baseline: −50 IU/L
[1]; Metastatic, Day 364
  S-ALP mean change from baseline: 0 IU/L
[1]; baseline PSA 10-20 ng/mL, Day 112
  S-ALP mean change from baseline: +5 IU/L
[1]; baseline PSA 10-20 ng/mL, Day 224
  S-ALP mean change from baseline: +8 IU/L
[1]; baseline PSA 10-20 ng/mL, Day 364
  S-ALP mean change from baseline: +8 IU/L
[1]; baseline PSA 20-50 ng/mL, Day 112
  S-ALP mean change from baseline: +5 IU/L
[1]; baseline PSA 20-50 ng/mL, Day 224
  S-ALP mean change from baseline: +8.5 IU/L
[1]; baseline PSA 20-50 ng/mL, Day 364
  S-ALP mean change from baseline: +11 IU/L
[1]; baseline PSA < 10 ng/mL, Day 112
  S-ALP mean change from baseline: +4.5 IU/L
[1]; baseline PSA < 10 ng/mL, Day 224
  S-ALP mean change from baseline: +6 IU/L
[1]; baseline PSA < 10 ng/mL, Day 364
  S-ALP mean change from baseline: +7.5 IU/L
[1]; baseline PSA > 50 ng/mL, Day 112
  S-ALP mean change from baseline: −40 IU/L
[1]; baseline PSA > 50 ng/mL, Day 224
  S-ALP mean change from baseline: −60 IU/L
[1]; baseline PSA > 50 ng/mL, Day 364
  S-ALP mean change from baseline: +10 IU/L
[2]; leuprolide 7.5 mg group
  probability of completing the study without experiencing PSA failure by day 364: 85.9% and ~85.8%
[2]; patients with baseline PSA>50 ng/mL
  proportion of PSA failures: 40.0%
[2]; patients with metastatic disease at baseline
  proportion of PSA failures: 36.2%
testosterone
  Kaplan-Meier estimate of the probability of testosterone ≦0.5 ng/mL from day 28 to day 364: 96.4%
  patients exhibiting testosterone suppression on day 3: no patients
testosterone; observed cases analysis
  overall proportion of patients with testosterone ≦0.5 ng/mL from day 28 to day 364: 96.0%
[3]; day 14
  PSA median percentage reduction from baseline: 15.3%
[3]; day 28
  PSA median percentage reduction from baseline: 61.7%
Luteinizing hormone (LH); by day 56, remaining until day 364
  median LH level: 0.035 IU/L
Luteinizing hormone (LH); day 1
  increase of median LH from baseline: > 400%
  median LH level, peak: 31.0 IU/L
[4]; by day 14
  FSH level: 2.0 IU/L
[4]; day 1
  FSH level, peak: 22.5 IU/L
  increase of FSH from baseline: 146%
[4]; from around day 56 until day 364
  Median FSH plateau: approximately 4.40 IU/L
